Results from patent US11498928B2, “Macrocyclic spiroethers as Mcl-1 inhibitors” (ASCENTAGE PHARMA (SUZHOU) CO., LTD., priority 2019, dated 2022).

Key:
OPM-2 cells = assay: Cell viability assay (OPM-2 cells), CCK-8; assay type: cell-based; conditions: Homo sapiens, OPM-2, 24 h, 5% FBS
Summary of the method: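 Viability read by CCK-8 absorbance (450 nm, 4 h reagent incubation) after 24 h compound exposure of 20000 OPM-2 cells per well at 37 °C. IC50 fitted by nonlinear regression on vehicle-normalized signal.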

[1] = molecular target: T1, Mcl-1 protein (residues 171-323) (Homo sapiens, UniProt Q07820); assay: Inhibition of Mcl-1 by fluorescence polarization (FP) competitive binding assay with FAM-Bid tracer; conditions: 2 nM FAM-Bid, 20 nM Mcl-1, 30 min
T1 construct: Tag-free Mcl-1 protein (residues 171-323) was used in the FP assay
Summary of the method: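 Ten-point compound titrations compete against 2 nM fluorescein-Bid for 20 nM Mcl-1 (171-323, untagged). Incubation 30 min RT in PBS buffer with BGG and Triton, 5% DMSO final. mP reduction fitted by sigmoidal nonlinear regression for IC50.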

NCI-H929 cells = assay: Cell viability assay (NCI-H929 cells), CCK-8; assay type: cell-based; conditions: Homo sapiens, NCI-H929, 24 h, 5% FBS
Summary of the method: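 Viability of NCI-H929 cells was measured using the Cell Counting Kit-8. After 24 hrs of compound exposure, 10 μL of CCK-8 solution per well was incubated for 1-4 hours, and absorbance was read at 450 nm on a BioTek Synergy 1MF. Readings were normalized to vehicle (DMSO) cells, and IC50 values were derived by nonlinear regression in GraphPad Prism 6.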

T1 sequence (Q07820 171-323): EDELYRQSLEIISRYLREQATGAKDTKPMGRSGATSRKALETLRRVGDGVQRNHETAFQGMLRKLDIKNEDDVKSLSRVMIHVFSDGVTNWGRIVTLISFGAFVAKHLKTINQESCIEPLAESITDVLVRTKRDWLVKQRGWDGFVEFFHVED

SMILES | IC50 [1] | IC50 (NCI-H929 cells) | IC50 (OPM-2 cells)
CO[C@@]1(CN2CCN(C(C)=O)CC2)C2=C[C@@H](C2)[C@H](C)[C@@H](C)S(=O)(=O)NC(=O)c2ccc3c(c2)N(C[C@@H]2CC[C@H]21)C[C@@]1(CCCc2c1ccc(Cl)c2F)CO3 [compound 49] | 11 nM | 12 nM | 186 nM
CO[C@@]1(CN2CCN(C3COC3)CC2)C2=C[C@@H](C2)[C@H](C)[C@@H](C)S(=O)(=O)NC(=O)c2ccc3c(c2)N(C[C@@H]2CC[C@H]21)C[C@@]1(CCCc2c1ccc(Cl)c2F)CO3 [compound 50] | 11 nM | 11 nM | 28 nM
CNC[C@]1(OC)C2=C[C@@H](C2)[C@H](C)[C@@H](C)S(=O)(=O)NC(=O)c2ccc3c(c2)N(C[C@@H]2CC[C@H]21)C[C@@]1(CCCc2c1ccc(Cl)c2F)CO3 [compound 52, (1S,11′R,12′S,13′R,16′R,16a′R,18a′R,E)-6-chloro-5-fluoro-16′-methoxy-11′,12′-dimethyl-16′-((methylamino)methyl)-3,4,12′,13′,16′,16a′,17′,18′,18a′,19′-decahydro-1′H,2H,3′H,11′H-spiro[naphthalene-1,2′-[5,7]etheno[13,15]methanocyclobuta[i][1,4]oxazepino[3,4-f][1]thia[2,7]diazacyclohexadecin]-8′(9′H)-one 10′,10′-dioxide] | 7 nM | 19 nM | 23 nM
CO[C@@]1(CN(C)C(C)=O)C2=C[C@@H](C2)[C@H](C)[C@@H](C)S(=O)(=O)NC(=O)c2ccc3c(c2)N(C[C@@H]2CC[C@H]21)C[C@@]1(CCCc2c1ccc(Cl)c2F)CO3 [compound 53, N-(((1S,11′R,12′S,13′R,16′R,16a′R,18a′R,E)-6-chloro-5-fluoro-16′-methoxy-11′,12′-dimethyl-10′,10′-dioxido-8′-oxo-3,4,8′,9′,12′,13′,16′,16a′,17′,18′,18a′,19′-dodecahydro-1′H,2H,3′H,11′H-spiro[naphthalene-1,2′-[5,7]etheno[13,15]methanocyclobuta[i][1,4]oxazepino[3,4-f][1]thia[2,7]diazacyclohexadecin]-16′-yl)methyl)-N-methylacetamide] | 5.7 nM | 49 nM | 57 nM
CO[C@@]1(CN2CCN3CCOC[C@@H]3C2)C2=C[C@@H](C2)[C@H](C)[C@@H](C)S(=O)(=O)NC(=O)c2ccc3c(n2)N(C[C@@H]2CC[C@H]21)C[C@@]1(CCCc2c1ccc(Cl)c2F)CO3 [compound 54, (1S,11′R,12′S,13′R,16′R,16a′R,18a′R,E)-6-chloro-5-fluoro-16′-(((S)-hexahydropyrazino[2,1-c][1,4]oxazin-8(1H)-yl)methyl)-16′-methoxy-11′,12′-dimethyl-3,4,12′,13′,16′,16a′,17′,18′,18a′,19′-decahydro-1′H,2H,3′H, 11′H-spiro[naphthalene-1,2′-[5,7]etheno[13,15]methanocyclobuta[i][1,4]oxazepino[3,4-f][1]thia[2,5,7]triazacyclohexadecin]-8′(9′H)-one 10′,10′-dioxide] | 15 nM | 4.9 nM | 56 nM
CC(C)[C@@H]1C2=C[C@@H](C2)[C@H](C)[C@@H](C)S(=O)(=O)NC(=O)c2ccc3c(c2)N(C[C@@H]2CC[C@H]21)C[C@@]1(CCCc2c1ccc(Cl)c2F)CO3 [compound 55, (1S,11′R,12′S,13′R,16′S,16a′S,18a′R)-6-chloro-5-fluoro-16′-isopropyl-11′,12′-dimethyl-3,4,12′,13′,16′,16a′,17′,18′,18a′,19′-decahydro-1′H,2H,3′H,11′H-spiro[naphthalene-1,2′-[5,7]etheno[13,15]methanocyclobuta[i][1,4]oxazepino[3,4-f][1]thia[2,7]diazacyclohexadecin]-8′(9′H)-one 10′,10′-dioxide] | 13 nM | 1000 nM | 1010 nM
C[C@@H]1[C@@H](C)S(=O)(=O)NC(=O)c2ccc3c(c2)N(C[C@@H]2CC[C@H]2[C@@H](N(C)C)C2=C[C@H]1C2)C[C@@]1(CCCc2c1ccc(Cl)c2F)CO3 [compound 57, (1S,11′R,12′S,13′R,16′R,16a′R,18a′R)-6-chloro-16′-(dimethylamino)-5-fluoro-11′,12′-dimethyl-3,4,12′,13′,16′,16a′,17′,18′,18a′,19′-decahydro-1′H,2H,3′H,11′H-spiro[naphthalene-1,2′-[5,7]etheno[13,15]methanocyclobuta[i][1,4]oxazepino[3,4-f][1]thia[2,7]diazacyclohexadecin]-8′(9′H)-one 10′,10′-dioxide] | 13 nM | 43 nM | 36 nM

Now from value to molecule, other results behind:

IC50 [1] | IC50 (NCI-H929 cells) | SMILES | IC50 (OPM-2 cells)
11 nM | 17 nM | CCO[C@@]1(CN2CCN3CCOC[C@@H]3C2)C2=C[C@@H](C2)[C@H](C)[C@@H](C)S(=O)(=O)NC(=O)c2ccc3c(c2)N(C[C@@H]2CC[C@H]21)C[C@@]1(CCCc2c1ccc(Cl)c2F)CO3 [compound 44, (1S,11′R,12′S,13′R,16′R,16a′R,18a′R,E)-6-chloro-16′-ethoxy-5-fluoro-16′-(((S)-hexahydropyrazino[2,1-c][1,4]oxazin-8(1H)-yl)methyl)-11′,12′-dimethyl-3,4,12,′13′,16′,16a′,17′,18′,18a′,19′-decahydro-1′H,2H,3′H,11′H-spiro[naphthalene-1,2′-[5,7]etheno[13,15]methanocyclobuta[i][1,4]oxazepino[3,4-f][1]thia[2,7]diazacyclohexadecin]-8′(9′H)-one 10′,10′-dioxide] | 48 nM
15 nM | 46 nM | CCO[C@@]1(CN2CCN3CCOC[C@H]3C2)C2=C[C@@H](C2)[C@H](C)[C@@H](C)S(=O)(=O)NC(=O)c2ccc3c(c2)N(C[C@@H]2CC[C@H]21)C[C@@]1(CCCc2c1ccc(Cl)c2F)CO3 [compound 45, (1S,11′R,12′S,13′R,16′R,16a′R,18a′R,E)-6-chloro-16′-ethoxy-5-fluoro-16′-(((R)-hexahydropyrazino[2,1-c][1,4]oxazin-8(1H)-yl)methyl)-11′,12′-dimethyl-3,4,12,′13′,16′,16a′,17′,18′,18a′,19′-decahydro-1′H,2H,3′H,11′H-spiro[naphthalene-1,2′-[5,7]etheno[13,15]methanocyclobuta[i][1,4]oxazepino[3,4-f][1]thia[2,7]diazacyclohexadecin]-8′(9′H)-one 10′,10′-dioxide] | 105 nM
13 nM | 200 nM | CCO[C@@]1(C(=O)N2CCN3CCOC[C@@H]3C2)C2=C[C@@H](C2)[C@H](C)[C@@H](C)S(=O)(=O)NC(=O)c2ccc3c(c2)N(C[C@@H]2CC[C@H]21)C[C@@]1(CCCc2c1ccc(Cl)c2F)CO3 [compound 46, (1S,11′R,12′S,13′R,16′R,16a′R,18a′R,E)-6-chloro-16′-ethoxy-5-fluoro-11′,12′-dimethyl-16′-((S)-octahydropyrazino[2,1-c][1,4]oxazine-8-carbonyl)-3,4,12′,13′,16′,16a′,17′,18′,18a′,19′-decahydro-1′H,2H,3′H,11′H-spiro[naphthalene-1,2′-[5,7]etheno[13,15]methanocyclobuta[i][1,4]oxazepino[3,4-f][1]thia[2,7]diazacyclohexadecin]-8′(9′H)-one 10′,10′-dioxide] | 325 nM
13 nM | 5.8 nM | C[C@@H]1[C@@H](C)S(=O)(=O)NC(=O)c2ccc3c(c2)N(C[C@@H]2CC[C@H]2[C@](O)(CN2CCN4CCOC[C@@H]4C2)C2=C[C@H]1C2)C[C@@]1(CCCc2c1ccc(Cl)c2F)CO3 [compound 47, (1S,11′R,12′S,13′R,16′R,16a′R,18a′R,E)-6-chloro-5-fluoro-16′-(((S)-hexahydropyrazino[2,1-c][1,4]oxazin-8(1H)-yl)methyl)-16′-hydroxy-11′,12′-dimethyl-3,4,12,′13′,16′,16a′,17′,18′,18a′,19′-decahydro-1′H,2H,3′H,11′H-spiro[naphthalene-1,2′-[5,7]etheno[13,15]methanocyclobuta[i][1,4]oxazepino[3,4-f][1]thia[2,7]diazacyclohexadecin]-8′(9′H)-one 10′,10′-dioxide] | 32 nM
18 nM | 28 nM | C[C@@H]1[C@@H](C)S(=O)(=O)NC(=O)c2ccc3c(c2)N(C[C@@H]2CC[C@H]2[C@](O)(CN2CCN4CCOC[C@H]4C2)C2=C[C@H]1C2)C[C@@]1(CCCc2c1ccc(Cl)c2F)CO3 [compound 48, (1S,11′R,12′S,13′R,16′R,16a′R,18a′R,E)-6-chloro-5-fluoro-16′-(((R)-hexahydropyrazino[2,1-c][1,4]oxazin-8(1H)-yl)methyl)-16′-hydroxy-11′,12′-dimethyl-3,4,12,′13′,16′,16a′,17′,18′,18a′,19′-decahydro-1′H,2H,3′H,11′H-spiro[naphthalene-1,2′-[5,7]etheno[13,15]methanocyclobuta[i][1,4]oxazepino[3,4-f][1]thia[2,7]diazacyclohexadecin]-8′(9′H)-one 10′,10′-dioxide] | 69 nM
7.4 nM | 6 nM | CO[C@@]1(CN2CCN3CCOC[C@@H]3C2)C2=C[C@@H](C2)[C@H](C)[C@@H](C)S(=O)(=O)NC(=O)c2ccc3c(c2)N(C[C@@H]2CC[C@H]21)C[C@@]1(CCCc2c1ccc(Cl)c2F)CO3 [compound 51, (1S,11′R,12′S,13′R,16′R,16a′R,18a′R,E)-6-chloro-5-fluoro-16′-(((S)-hexahydropyrazino[2,1-c][1,4]oxazin-8(1H)-yl)methyl)-16′-methoxy-11′,12′-dimethyl-3,4,12′,13′,16′,16a′,17′,18′,18a′,19′-decahydro-1′H,2H,3′H,11′H-spiro[naphthalene-1,2′-[5,7]etheno[13,15]methanocyclobuta[i][1,4]oxazepino[3,4-f][1]thia[2,7]diazacyclohexadecin]-8′(9′H)-one 10′,10′-dioxide] | 14 nM
